The OligoGym collection
Several values for one entry are separate records, joined by “and”; a condition that tells them apart may be missing. Identical values can stand only once. After the bases stand the sugars from the 5' end (letter, count) and the backbone: PS all phosphorothioate, else s phosphorothioate and o phosphodiester by linkage. HELM strings list units from the 5' end as sugar, base in round brackets, then linkage (d deoxyribose, r ribose, m 2'-O-methyl, p phosphodiester). Methylation of C is not given here. [moe] = 2'-O-(2-methoxyethyl) (MOE); [cEt] = constrained ethyl (cEt); [sp] = phosphorothioate linkage; e = 2'-O-(2-methoxyethyl) (MOE); k = constrained ethyl (cEt); d = 2'-deoxy (DNA)

Experiments:
HBV = conditions: ASO
APOL1 = conditions: ASO

| Substance | target mRNA inhibition (HBV; HepG2, 0.07 µM) | target mRNA inhibition (APOL1; A431, 2 µM) [%] | further results |
| --- | --- | --- | --- |
| RNA1{[moe](G)[sp].[moe](G)[sp].d(A)[sp].d(G)[sp].d(T)[sp].d(T)[sp].d(C)[sp].d(C)[sp].d(G)[sp].d(C)[sp].d(A)[sp].[moe](G)[sp].[moe](T)[sp].[moe](A)[sp].[moe](T)[sp].[moe](G)}$$$$V2.0 | 67% and 45% |  |  |
| RNA1{[moe](A)[sp].[moe](A)[sp].d(C)[sp].d(C)[sp].d(A)[sp].d(C)[sp].d(T)[sp].d(G)[sp].d(A)[sp].d(A)[sp].d(C)[sp].[moe](A)[sp].[moe](A)[sp].[moe](A)[sp].[moe](T)[sp].[moe](G)[sp].[moe](G)}$$$$V2.0 | 67% and 59% |  |  |
| RNA1{[moe](A)[sp].[moe](G)[sp].[moe](T)[sp].d(T)[sp].d(C)[sp].d(C)[sp].d(G)[sp].d(C)[sp].d(A)[sp].d(G)[sp].d(T)[sp].d(A)[sp].d(T)[sp].[cEt](G)[sp].[cEt](G)[sp].[cEt](A)}$$$$V2.0 | 58% and 69% |  |  |
| RNA1{[moe](A)[sp].[moe](G)[sp].[moe](G)[sp].[moe](C)[sp].d(A)[sp].d(T)[sp].d(A)[sp].d(G)[sp].d(C)[sp].d(A)[sp].d(G)[sp].d(C)[sp].d(A)[sp].[moe](G)[sp].[moe](G)[sp].[moe](A)[sp].[moe](T)}$$$$V2.0 | 29% and 31% |  |  |
| RNA1{[moe](A)[sp].[moe](G)[sp].[moe](G)[sp].d(C)[sp].d(A)[sp].d(T)[sp].d(A)[sp].d(G)[sp].d(C)[sp].d(A)[sp].d(G)[sp].d(C)[sp].[moe](A)[sp].[moe](G)[sp].[moe](G)[sp].[moe](A)}$$$$V2.0 | 54% and 53% |  |  |
| RNA1{[moe](A)[sp].[moe](G)[sp].[moe](G)[sp].[moe](T)[sp].[moe](G)[sp].d(A)[sp].d(A)[sp].d(G)[sp].d(C)[sp].d(G)[sp].d(A)[sp].d(A)[sp].d(G)[sp].d(T)[sp].[moe](G)[sp].[moe](C)[sp].[moe](A)}$$$$V2.0 | 73% and 56% |  |  |
| RNA1{[moe](T)[sp].[cEt](C)[sp].d(C)[sp].d(G)[sp].d(C)[sp].d(A)[sp].d(G)[sp].d(T)[sp].d(A)[sp].d(T)[sp].d(G)[sp].d(G)[sp].[cEt](A)[sp].[moe](T)[sp].[cEt](C)[sp].[moe](G)}$$$$V2.0 | 85% and 81% |  | target mRNA inhibition (HBV; HepG2, 0.0092593 µM): 33%; target mRNA inhibition (HBV; HepG2, 0.0277778 µM): 56%; target mRNA inhibition (HBV; HepG2, 0.0833333 µM): 80%; target mRNA inhibition (HBV; HepG2, 0.25 µM): 92% |
| RNA1{[moe](A)[sp].[moe](G)[sp].[moe](G)[sp].[moe](T)[sp].[moe](G)[sp].d(A)[sp].d(A)[sp].d(G)[sp].d(C)[sp].d(G)[sp].d(A)[sp].d(A)[sp].d(G)[sp].d(T)[sp].[moe](G)[sp].[moe](C)}$$$$V2.0 | 50% and 44% |  |  |
| RNA1{[moe](G)[sp].[cEt](C)[sp].[cEt](A)[sp].d(C)[sp].d(T)[sp].d(A)[sp].d(G)[sp].d(T)[sp].d(A)[sp].d(A)[sp].d(A)[sp].d(C)[sp].d(T)[sp].[cEt](G)[sp].[cEt](A)[sp].[moe](G)}$$$$V2.0 | 73% and 81% |  | target mRNA inhibition (HBV; HepG2, 0.0092593 µM): 8%; target mRNA inhibition (HBV; HepG2, 0.0277778 µM): 24%; target mRNA inhibition (HBV; HepG2, 0.0833333 µM): 65%; target mRNA inhibition (HBV; HepG2, 0.25 µM): 87% |
| RNA1{[moe](C)[sp].[cEt](T)[sp].[cEt](G)[sp].d(A)[sp].d(A)[sp].d(C)[sp].d(A)[sp].d(A)[sp].d(A)[sp].d(T)[sp].d(G)[sp].d(G)[sp].d(C)[sp].[cEt](A)[sp].[cEt](C)[sp].[moe](T)}$$$$V2.0 | 69% and 58% |  |  |
| RNA1{[moe](G)[sp].[moe](A)[sp].[moe](A)[sp].[moe](C)[sp].[moe](T)[sp].d(G)[sp].d(G)[sp].d(A)[sp].d(G)[sp].d(C)[sp].d(C)[sp].d(A)[sp].d(C)[sp].d(C)[sp].[moe](A)[sp].[moe](G)}$$$$V2.0 | 46% and 39% |  |  |
| RNA1{[moe](A)[sp].[cEt](A)[sp].d(G)[sp].d(T)[sp].d(C)[sp].d(C)[sp].d(A)[sp].d(C)[sp].d(C)[sp].d(A)[sp].d(C)[sp].d(G)[sp].[cEt](A)[sp].[moe](G)[sp].[cEt](T)[sp].[moe](C)}$$$$V2.0 | 43% and 40% |  |  |
| RNA1{[moe](A)[sp].[moe](G)[sp].d(A)[sp].d(A)[sp].d(G)[sp].d(T)[sp].d(C)[sp].d(C)[sp].d(A)[sp].d(C)[sp].d(C)[sp].[moe](A)[sp].[moe](C)[sp].[moe](G)[sp].[moe](A)[sp].[moe](G)[sp].[moe](T)}$$$$V2.0 | 62% and 49% |  |  |
| RNA1{[moe](A)[sp].[moe](G)[sp].[moe](T)[sp].[moe](T)[sp].d(C)[sp].d(C)[sp].d(G)[sp].d(C)[sp].d(A)[sp].d(G)[sp].d(T)[sp].d(A)[sp].d(T)[sp].[moe](G)[sp].[moe](G)[sp].[moe](A)[sp].[moe](T)}$$$$V2.0 | 43% and 52% |  |  |
| RNA1{[moe](C)[sp].[cEt](A)[sp].[cEt](A)[sp].d(A)[sp].d(T)[sp].d(G)[sp].d(G)[sp].d(C)[sp].d(A)[sp].d(C)[sp].d(T)[sp].d(A)[sp].d(G)[sp].[cEt](T)[sp].[cEt](A)[sp].[moe](A)}$$$$V2.0 | 55% and 64% |  |  |
| RNA1{[moe](G)[sp].[moe](A)[sp].[moe](G)[sp].d(T)[sp].d(T)[sp].d(C)[sp].d(C)[sp].d(G)[sp].d(C)[sp].d(A)[sp].d(G)[sp].d(T)[sp].d(A)[sp].[cEt](T)[sp].[cEt](G)[sp].[cEt](G)}$$$$V2.0 | 70% and 62% |  |  |
| RNA1{[moe](G)[sp].[moe](C)[sp].[moe](A)[sp].[moe](C)[sp].d(T)[sp].d(A)[sp].d(G)[sp].d(T)[sp].d(A)[sp].d(A)[sp].d(A)[sp].d(C)[sp].d(T)[sp].[moe](G)[sp].[moe](A)[sp].[moe](G)[sp].[moe](C)}$$$$V2.0 | 55% and 47% |  |  |
| GCTTTAAACTCAGGTG (sugars kkddddkekekkdddd, PS) |  | 50 |  |
| GGAATTATGGAATTGC (sugars kkkddddkekeddddd, PS) |  | 55 |  |
| GTGTTATATTTGATCC (sugars k2 d4 e3 k2 d5, PS) |  | 98 | target mRNA inhibition (APOL1; A431, 0.04 µM): 52% and 50%; target mRNA inhibition (APOL1; A431, 1 µM): 98% |
| TGTATTTCTTGATGTG (sugars kkkddddkekeddddd, PS) |  | 71 |  |
| GCTAATTTTCTGACTG (sugars kkddddkekekddddd, PS) |  | 96 | target mRNA inhibition (APOL1; A431, 0.0156 µM): 28%; target mRNA inhibition (APOL1; A431, 0.04 µM): 50%; target mRNA inhibition (APOL1; A431, 0.0625 µM): 63%; target mRNA inhibition (APOL1; A431, 0.25 µM): 86%; target mRNA inhibition (APOL1; A431, 1 µM): 92% |
| GTATTTCTTGATGTGG (sugars k2 d4 e3 k2 d5, PS) |  | 97 |  |
| AGCTTTAAACTCAGGT (sugars kddddkekekeddddd, PS) |  | 52 |  |
| CGTCAATATATTCTTT (sugars kdddddkekekddddd, PS) |  | 90 |  |

| Substance | target mRNA inhibition (HBV; HepG2, 0.07 µM) | target mRNA inhibition (APOL1; A431, 2 µM) [%] | further results |
| --- | --- | --- | --- |
| GAATTATGGAATTGCA (sugars kkddddekekeddddd, PS) |  | 95 |  |
| ACGCAATGCTGACTTG (sugars kkddddkekekkdddd, PS) |  | 72 |  |
| CTGAAGATTGGCTCTG (sugars kkddddekekeddddd, PS) |  | 53 |  |
| CGTCAATATATTCTTT (sugars kkkddddkdkdkdddd, PS) |  | 95 | target mRNA inhibition (APOL1; A431, 0.0156 µM): 23%; target mRNA inhibition (APOL1; A431, 0.0625 µM): 61%; target mRNA inhibition (APOL1; A431, 0.25 µM): 84%; target mRNA inhibition (APOL1; A431, 1 µM): 93% |
| GTTCAAAAGCAGCATT (sugars k2 d4 e3 k2 d5, PS) |  | 86 |  |
| CAACACATCATTGGGT (sugars kkkddddkekekdddd, PS) |  | 30 |  |
| ATTCTCATGGTACAGG (sugars kkddddkekekddddd, PS) |  | 76 |  |
| TTTTAGAAAGGACACG (sugars k4 d9 k3, PS) |  |  | target mRNA inhibition (APOL1; A431, 0.0625 µM): 42%; target mRNA inhibition (APOL1; A431, 0.25 µM): 67%; target mRNA inhibition (APOL1; A431, 1 µM): 85% |
| GCAATGCTGACTTGGC (sugars kdddddkekekddddd, PS) |  | 85 |  |
| GGGTTATGAAATTATT (sugars kkkddddkekekdddd, PS) |  | 73 |  |
| GCAGGTTCACATGACA (sugars k4 d9 k3, PS) |  |  | target mRNA inhibition (APOL1; A431, 0.0625 µM): 39%; target mRNA inhibition (APOL1; A431, 0.25 µM): 58%; target mRNA inhibition (APOL1; A431, 1 µM): 72% |
| CAACACATCATTGGGT (sugars k2 d4 e3 k2 d5, PS) |  | 80 |  |
| ATTCAGAATTTCCACT (sugars kkkddddkekekdddd, PS) |  | 56 |  |
| GAATTATGGAATTGCA (sugars k2 d4 e4 k2 d4, PS) |  | 95 |  |
| TTCTATTGGGCCTCAG (sugars k4 d9 k3, PS) |  |  | target mRNA inhibition (APOL1; A431, 0.0625 µM): 74%; target mRNA inhibition (APOL1; A431, 0.25 µM): 87%; target mRNA inhibition (APOL1; A431, 1 µM): 94% |
| TTTGTAAGTGCAACCA (sugars kkddddkekekddddd, PS) |  | 98 |  |
| GGGTTATGAAATTATT (sugars k2 d4 e3 k2 d5, PS) |  | 77 |  |
| AGTTTTGTAAGTGCAA (sugars k2 d4 e3 k2 d5, PS) |  | 94 | target mRNA inhibition (APOL1; A431, 0.0156 µM): 10%; target mRNA inhibition (APOL1; A431, 0.0625 µM): 49%; target mRNA inhibition (APOL1; A431, 0.25 µM): 79%; target mRNA inhibition (APOL1; A431, 1 µM): 93% |
| GCAAGGTTGTCCAGAG (sugars k4 d9 k3, PS) |  |  | target mRNA inhibition (APOL1; A431, 0.0625 µM): 43%; target mRNA inhibition (APOL1; A431, 0.25 µM): 61%; target mRNA inhibition (APOL1; A431, 1 µM): 61% |
| GTATTGCCAGCTAAGG (sugars kdddddkekekddddd, PS) |  | 93 | target mRNA inhibition (APOL1; A431, 0.0156 µM): 29%; target mRNA inhibition (APOL1; A431, 0.0625 µM): 50%; target mRNA inhibition (APOL1; A431, 0.25 µM): 70%; target mRNA inhibition (APOL1; A431, 1 µM): 87% |
| GTATTGTTTTTGTGGG (sugars kddddkekekeddddd, PS) |  | 70 |  |
| GAAGATTGGCTCTGGC (sugars k2 d4 e3 k2 d5, PS) |  | 81 |  |
| GAATTATGGAATTGCA (sugars kkddddkekekkdddd, PS) |  | 61 |  |
| AGTATTGTTTTTGTGG (sugars k2 d4 e3 k2 d5, PS) |  | 90 |  |
| ATTCTCATGGTACAGG (sugars kkdddddkekeddddd, PS) |  | 95 | target mRNA inhibition (APOL1; A431, 0.0156 µM): 18%; target mRNA inhibition (APOL1; A431, 0.0625 µM): 46%; target mRNA inhibition (APOL1; A431, 0.25 µM): 74%; target mRNA inhibition (APOL1; A431, 1 µM): 90% |
